The target in assay [1] is T1, PDGFRbeta Receptor Kinase (PDGFRbeta) (Homo sapiens, UniProt P09619).
T1 construct: PDGFRbeta intracellular domain protein (UPSTATE); purchased UPSTATE
Put plainly: Determination of PDGFRbeta receptor kinase (PDGFRbeta) inhibitory activity (alpha screen). The class given is biochemical. The settings on record: PDGFRbeta intracellular domain protein, 25 μM ATP buffer; read-out: IC50 value (PDGFRbeta kinase inhibition). Here is the method: (§1) The test compound dissolved in dimethyl sulfoxide (DMSO) was diluted with a buffer (50 mM Tris-HCl, pH 7.5, 5 mM MgCl2, 5 mM MnCl2, 2 mM dithiothreitol, 0.01% Tween-20). A buffer (10 μl) containing 125 ng/ml PDGFRbeta intracellular domain protein (UPSTATE) and 250 ng/ml biotin-labeled polypeptide biotinyl-poly-Glu:Tyr (4:1) (CIS Bio International) was added to the compound solution (5 μl). At 5 min after mixing a kinase enzyme, the compound and a biotin-labeled polypeptide, a buffer (10 μl) containing 25 μM ATP was added to the obtained mixture, the mixture was allowed to react at 25° C. for 30 min. Then, 25 μl of a stop solution (100 mM EDTA·2 sodium salt, 62.5 mM HEPES buffer (pH 7.4), 250 mM NaCl, 0.1% bovine serum albumin, 10 μg/ml Streptavidin Donor beads: PerkinElmer for alpha screen assay, 10 μg/ml Anti-phosphotyrosine (P-Tyr-66) Acceptor beads: PerkinElmer for alpha screen assay) was added to quench the reaction. The reaction solution was stood at 25° C. for 16 hr, and the count was measured using a plate reader·Fusion™ (manufactured by PerkinElmer). The kinase inhibitory rate (%) of the test compound was calculated by the following formula.
(§2) Inhibitory rate(%)=(1−(count of test compound−blank)÷(control−blank))×100
(§3) wherein the count of the solution reacted without addition of the compound is “control” and the count of the solution without addition of the compound and ATP is “blank”.

The target of assay [2] is T2, VEGF Receptor 2 Kinase (VEGFR2) (Homo sapiens, UniProt P35968).
T2 construct: made in house; host or cells: SF-21 insect cells, recombinant baculovirus BAC-VEGFR2 (pFASTBAC1)
The experiment in a line: Determination of VEGF receptor 2 kinase (VEGFR2) inhibitory activity (alpha screen). The class given is biochemical. Particulars: VEGFR2 intracellular domain protein, 25 μM ATP buffer, read-out: inhibitory rate (kinase inhibitory rate of VEGFR2). The protocol: For cloning of human VEGF receptor 2 (hereinafter to be abbreviated as VEGFR2) gene, PCR was performed using cDNA Libraries Human Placenta (Clontech) as a template. The primer used for PCR was prepared by, based on the information of the base sequence (Genbank Accession AF035121) of VEGFR2 gene, adding a base sequence encoding the flag peptide and a restriction enzyme recognition sequence to the base sequence (2671-4374 of Genbank Accession AF035121) encoding the VEGFR2 intracellular domain, so that a flag tag would be added to the N terminal of the protein. The primer base sequence is shown in the following.
PCR reaction was carried out using a KOD-plus kit (TOYOBO). The obtained PCR product was electrophoresed on an agarose gel (1%), and a DNA fragment amplified by PCR was recovered from the gel and digested with restriction enzymes Sal I and Sph I. The DNA after the restriction enzyme treatment was electrophoresed on an agarose gel (1%), and the obtained DNA fragment was recovered and ligated to the plasmid pFASTBAC1 (Invitrogen) digested with restriction enzymes Sal I and Sph I to give an expression plasmid pFB-VEGFR2. The base sequence of the inserted fragment was confirmed to have matched with the base sequence (2671-4374 of Genbank Accession AF035121) of the VEGFR2 intracellular domain. Furthermore, virus stock BAC-VEGFR2 of the recombinant Baculovirus was prepared using BAC-TO-BAC Baculovirus Expression System (Invitrogen).
SF-21 cells were inoculated into 1 L of Sf-900IISFM medium (Invitrogen) containing 10% fetal calf serum (trace), 50 mg/L Gentamicin (Invitrogen) and 0.1% Pluronic F-68 (Invitrogen) at 1×10^6 cells/ml, and shake culture was performed using a 2 L Erlenmeyer flask at 27° C., 100 rpm. After 24 hr of culture, recombinant Baculovirus BAC-VEGFR2 (13.4 mL) was added, and the culture was continued for 3 days. The culture medium was centrifuged at 2,000 rpm for 5 min to give virus-infected cells. The infected cells were washed with phosphate buffered saline (Invitrogen), centrifuged under the same conditions, and preserved at −80° C. The cryopreserved cells were thawed in ice, suspended in 30 mL of buffer A (Tris buffer, pH 7.4, containing 20% glycerol and 0.15M NaCl (50 mM)) supplemented with Complete Protease Inhibitor (Boehringer), and disrupted three times using a polytron homogenizer (Kinematica) at 20,000 rpm, 30 sec. The disrupt was clarified by centrifugation at 40,000 rpm, 30 min and filtered through a 0.45 μm filter. The filtrate was passed through a column packed with Anti-FLAG M2 Affinity Gel (Sigma Ltd., 4 mL) at a flow rate of about 0.5 mL/min. The column was washed with buffer A and eluted with buffer A containing 100 μg/mL FLAG peptide. The eluate was concentrated by Vivaspin 20 (Viva Science) having a fraction molecular weight of 30K. The concentrate was applied to NAP™ 25 column (Amersham Biosciences) equilibrated with buffer A for buffer exchange. The fractions containing the VEGFR2 intracellular domain protein were collected, glycerol was added to the final concentration of 50% and the fractions cryopreserved at ˜80° C.
The test compound dissolved in dimethyl sulfoxide (DMSO) was diluted with a buffer (50 mM Tris-HCl, pH 7.5, 5 mM MgCl2, 5 mM MnCl2, 2 mM dithiothreitol, 0.01% Tween-20). A buffer (10 μl) containing 50 ng/ml VEGFR2 intracellular domain protein and 250 ng/ml biotin-labeled polypeptide biotinyl-poly-Glu:Tyr (4:1) (CIS Bio International) was added to the compound solution (5 μl). A buffer (10 μl) containing 25 μM ATP was added to the obtained mixture, the mixture was allowed to react at 25° C. for 5 min. Then, 25 μl of a stop solution (100 mM EDTA·2 sodium salt, 62.5 mM HEPES buffer (pH 7.4), 250 mM NaCl, 0.1% bovine serum albumin, 10 μg/ml Streptavidin Donor beads: PerkinElmer for alpha screen assay, 10 μg/ml Anti-phosphotyrosine (P-Tyr-100) Acceptor beads: PerkinElmer for alpha screen assay) was added to quench the reaction. […]

Assay [3] has as its target T3, PDGFR Alpha Receptor Kinase (PDGFRalpha) (Homo sapiens, UniProt P16234).
T3 construct: PDGFRalpha intracellular domain protein (UPSTATE); purchased UPSTATE
Put plainly: Determination of PDGFR alpha receptor kinase (PDGFRalpha) inhibitory activity (alpha screen). The assay is classed as biochemical. The settings on record: PDGFRalpha intracellular domain protein, 25 μM ATP buffer; read-out: IC50 value (PDGFRalpha kinase inhibition). The protocol: The test compound dissolved in dimethyl sulfoxide (DMSO) was diluted with a buffer (50 mM Tris-HCl, pH 7.5, 5 mM MgCl2, 5 mM MnCl2, 2 mM dithiothreitol, 0.01% Tween-20).
Acceptor beads: PerkinElmer for alpha screen assay) was added to quench the reaction. The reaction solution was stood at 25° C. for 16 hr, and the count was measured using a plate reader·Fusion™ (manufactured by PerkinElmer). The kinase inhibitory rate (%) of the test compound was calculated by the following formula.
as §2, §3

Assay [4] has as its system Human umbilical vein endothelial cells (HUVEC). The experiment in a line: Vascular endothelial cell growth inhibitory test. The assay is classed as cell-based. Particulars: Homo sapiens, 120 h, VEGF 120 ng/mL, culture 5 days, XTT reagent. The protocol: Human umbilical vein endothelial cells (HUVEC, purchased from KURABO) were cultured in a gas incubator (37° C., CO2 5%) in a vascular endothelial cell medium (Invitrogen) containing 5% fetal calf serum and a basic fibroblast growth factor (2.5 ng/mL). To be specific, HUVEC suspended in the aforementioned vascular endothelial cell medium (Invitrogen) containing 5% fetal calf serum were seeded into a 96 well flat-bottom plate (50 μL, 3000 cells each well). After culturing overnight, various concentrations of test substance and the final concentration (120 ng/mL) of vascular endothelial growth factor (VEGF) were dissolved in a vascular endothelial cell medium (Invitrogen) containing 5% fetal calf serum and added to each well (50 μL). After culturing for 5 days, an XTT reagent (Wako Pure Chemical Industries, Ltd.) was added to each well (10 μL), and reacted in a gas incubator (37° C., CO2 5%) for 2-3 hr. The absorbance at 450 nm was measured by a microtiter plate reader, and the cell growth inhibitory activity was determined.
On the technique in general: Formazan colour is commonly taken as a measure of viable cells.

Assay [5] deals with T4, TIE2 Receptor Kinase (TIE2) (Homo sapiens, UniProt Q02763).
T4 construct: TIE2 intracellular domain protein (UPSTATE); purchased UPSTATE
Put plainly: Determination of TIE2 receptor kinase (TIE2) inhibitory activity (alpha screen). The assay is classed as biochemical. Particulars: TIE2 intracellular domain protein, 5 μM ATP buffer; read-out: IC50 value (TIE2 kinase inhibition). Here is the method: as §1, with “containing 50” for “containing 125”, “ng/ml TIE2” for “ng/ml PDGFRbeta”, “containing 5” for “containing 25”, “for 10” for “for 30”
as §2, §3
Prism (Graphpad Software) according to the nonlinear-regression sigmoidal dose-response (variable slope) analysis method.

Each structure is given as a SMILES string.

In general, IC50 refers to the point on the concentration scale where inhibition reaches its midpoint.

T3 sequence (P16234 550-1089 limits assumed): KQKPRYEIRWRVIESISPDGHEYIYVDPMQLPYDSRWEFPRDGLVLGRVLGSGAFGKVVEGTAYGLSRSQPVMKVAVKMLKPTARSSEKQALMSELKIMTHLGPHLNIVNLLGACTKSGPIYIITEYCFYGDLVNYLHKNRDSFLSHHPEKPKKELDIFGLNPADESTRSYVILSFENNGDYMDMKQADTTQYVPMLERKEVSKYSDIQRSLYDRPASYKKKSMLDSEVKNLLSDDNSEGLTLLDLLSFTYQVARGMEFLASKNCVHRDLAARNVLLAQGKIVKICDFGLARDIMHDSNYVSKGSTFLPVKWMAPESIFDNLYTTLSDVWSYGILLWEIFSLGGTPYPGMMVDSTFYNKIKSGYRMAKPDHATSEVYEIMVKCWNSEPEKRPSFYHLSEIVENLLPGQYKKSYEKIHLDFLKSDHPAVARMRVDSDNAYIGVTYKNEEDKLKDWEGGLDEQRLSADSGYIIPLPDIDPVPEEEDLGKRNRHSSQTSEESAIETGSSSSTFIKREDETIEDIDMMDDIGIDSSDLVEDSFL
T1 sequence (P09619 554-1106 limits assumed): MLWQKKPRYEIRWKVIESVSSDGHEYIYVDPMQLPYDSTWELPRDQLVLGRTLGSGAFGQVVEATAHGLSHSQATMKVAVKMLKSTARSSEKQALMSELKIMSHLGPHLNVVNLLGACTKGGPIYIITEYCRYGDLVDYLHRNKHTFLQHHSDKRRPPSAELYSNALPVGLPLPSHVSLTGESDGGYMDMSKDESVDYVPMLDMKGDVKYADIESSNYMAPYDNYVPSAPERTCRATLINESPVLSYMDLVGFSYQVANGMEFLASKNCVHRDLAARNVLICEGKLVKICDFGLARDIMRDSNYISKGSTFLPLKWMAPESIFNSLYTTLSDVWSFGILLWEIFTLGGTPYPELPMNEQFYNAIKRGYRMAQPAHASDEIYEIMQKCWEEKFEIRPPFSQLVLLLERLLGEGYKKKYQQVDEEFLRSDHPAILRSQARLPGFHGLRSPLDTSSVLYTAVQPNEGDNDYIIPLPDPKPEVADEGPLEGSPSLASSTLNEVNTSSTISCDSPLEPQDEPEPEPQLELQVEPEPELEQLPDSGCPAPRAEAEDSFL
T2 sequence (P35968 786-1356 limits assumed): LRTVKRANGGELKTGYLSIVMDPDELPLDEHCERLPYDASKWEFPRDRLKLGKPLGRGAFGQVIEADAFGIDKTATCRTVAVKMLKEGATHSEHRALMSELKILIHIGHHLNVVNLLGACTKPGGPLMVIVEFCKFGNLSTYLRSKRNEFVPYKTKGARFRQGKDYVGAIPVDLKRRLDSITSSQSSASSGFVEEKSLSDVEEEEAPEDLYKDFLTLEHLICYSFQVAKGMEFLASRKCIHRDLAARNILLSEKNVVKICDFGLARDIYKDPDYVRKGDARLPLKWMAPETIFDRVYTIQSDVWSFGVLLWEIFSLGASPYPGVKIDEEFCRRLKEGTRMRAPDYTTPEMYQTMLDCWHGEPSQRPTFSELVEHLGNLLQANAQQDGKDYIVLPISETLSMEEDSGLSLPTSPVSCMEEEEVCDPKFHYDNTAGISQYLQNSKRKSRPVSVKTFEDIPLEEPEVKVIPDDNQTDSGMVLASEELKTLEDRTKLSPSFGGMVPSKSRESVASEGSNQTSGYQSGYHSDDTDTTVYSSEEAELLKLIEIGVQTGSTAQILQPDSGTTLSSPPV
T4 sequence (Q02763 770-1124 limits assumed): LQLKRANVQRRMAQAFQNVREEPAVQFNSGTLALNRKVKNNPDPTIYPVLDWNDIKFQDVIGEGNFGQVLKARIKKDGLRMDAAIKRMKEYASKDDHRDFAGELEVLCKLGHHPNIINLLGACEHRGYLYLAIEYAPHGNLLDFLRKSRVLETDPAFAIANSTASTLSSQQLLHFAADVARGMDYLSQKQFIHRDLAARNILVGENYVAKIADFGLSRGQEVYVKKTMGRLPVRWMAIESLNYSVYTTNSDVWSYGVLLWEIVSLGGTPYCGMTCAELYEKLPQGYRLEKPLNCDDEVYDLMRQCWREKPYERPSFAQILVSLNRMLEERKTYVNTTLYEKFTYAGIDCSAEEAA

In the case of `Cn1ccc2ncnc(Oc3ccc(NC(=O)Nc4cccc(Cl)c4)cc3)c21` [Example 4, N-(3-chlorophenyl)-N′-{4-[(5-methyl-5H-pyrrolo[3,2-d]pyrimidin-4-yl)oxy]phenyl}urea], the IC50 in assay [1] is not above 500 nM; in assay [3], not above 500 nM; in assay [4] it was 91 nM. Moreover, the inhibition at 1 µM in assay [2] is not below 90%.

Take `Cc1cccc(NC(=O)Nc2ccc(Oc3ncnc4ccn(C)c34)cc2)c1` [Example 18, N-(3-methylphenyl)-N′-{4-[(5-methyl-5H-pyrrolo[3,2-d]pyrimidin-4-yl)oxy]phenyl}urea]: the IC50 in assay [1] was not above 500 nM; in assay [3], not above 500 nM; in assay [4] it was 53 nM. The inhibition at 1 µM in assay [2] was not below 90%.

As for `COc1cc(Oc2ncnc3ccn(C)c23)ccc1NC(=O)Nc1cccc(C(F)(F)F)c1` [Example 77, N-{2-methoxy-4-[(5-methyl-5H-pyrrolo[3,2-d]pyrimidin-4-yl)oxy]phenyl}-N′-[3-(trifluoromethyl)phenyl]urea], the results for the IC50 in assay [1], in assay [3] and in assay [5] were not above 500 nM, not above 500 nM and not above 5 nM, respectively. Besides, the inhibition at 1 µM in assay [2] was not below 90%.

The values are drawn from patent US20090137580A1, “Fused Heterocyclic Derivatives and Use Thereof” (Takeda Pharmaceutical Company Limited, priority 2005, published 2009).
